Assay results taken from patent US20080254101A1, “PILOCARPINE COMPOSITIONS AND METHODS OF USE THEREOF” (priority 2004, published 2008).

Experiments:
[1] = at 37° C., nitrogen in the imidazole group; cited from earlier work
[2] = Ionization of pilocarpine (pKa, pH = pKa + Log10 formula); format: physicochemical; conditions: at a pH of from about 7.6 to about 8.6, using the formula
Description: Conversion of the ionized form to the un-ionized form for pilocarpine is related to pH according to the formula: pH=pKa+Log10 (un-ionized concentration/ionized concentration). When the pH is the same as the pKa, equimolar concentrations of the un-ionized form and ionized form exist. For basic compounds such as pilocarpine, when the pH is one unit higher than the pKa, the ratio of the un-ionized form to the ionized form is 91:9. Similarly, when the pH is two units higher than the pKa, the ratio of un-ionized form to the ionized form is […]. As noted above, the un-ionized form is lipophilic and, therefore, more capable of passing through mucous membranes such as the oral mucosa than the ionized form, which is lipophobic in nature. Accordingly, increasing the pH of the saliva favors conversion of the ionized form into the un-ionized form for basic compounds such as pilocarpine, and the final pH can be determined by making use of the above formula. For pilocarpine, the tri-substituted nitrogen in the imidazole group controls the extent of ionization and the degree of lipophilicity in any given medium. Typically, the nitrogen in the imidazole group imparts a pKa of about 6.6 to the molecule at 37° C.

CC[C@@H]1C(=O)OC[C@@H]1Cc1cncn1C [pilocarpine]
pKa [1]: about 6.6
conversion to an un-ionized form [2]: about 90%
